# Test results as given in US8530648B2, “Diaza-spiro[5.5]undecanes” (Novartis AG, priority 2009, dated 2013).
# Columns and labels:
# hOx1R [1] = biological target: T1, hOx1R (Homo sapiens (Human), UniProt O43613); experiment: Calcium accumulation in cells (FLIPR), hOx1R; format: cell-based; settings: inhibition of orexin A induced calcium accumulation, Cheng and Prusoff correction
# Procedure, shortened: (§1)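 Cells expressing human orexin 1 or 2 receptor, serum-deprived overnight, loaded with Fluo-4-AM (2 μM) plus 0.1 mM probenecid, pH 7.4 HEPES buffer with 1% BSA.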
# hOx2R [2] = biological target: T2, hOx2R (Homo sapiens (Human), UniProt O43614); experiment: Calcium accumulation in cells (FLIPR), hOx2R; format: cell-based; settings: inhibition of orexin A induced calcium accumulation, Cheng and Prusoff correction
# Procedure, shortened: as §1
# hOx1R [3] = biological target: T1, hOx1R; experiment: Radioligand binding assay, [125I]orexin A, hOx1R; settings: radioligand [125I]orexin A, competition
# Experimental: (§2) For crude cell membrane preparations, cells (CHO, Chinese hamster ovary or HEK, human embryonic kidney) expressing human orexin 1 or human orexin 2 receptors, were washed with HEPES (10 mM, pH 7.5), scraped off the culture plates with the same buffer, and centrifuged at 4° C. for 5 min at 2500×g. The cell pellet was either stored at −80° C. or used directly. Before the experiments, cell membranes were re-suspended in binding assay buffer (10 mM HEPES, 0.5% (w/v) bovine serum albumin, pH 7.5) by homogenisation with a Polytron homogeniser at 50 Hz for 20 s. Cell membranes were also used as made available by commercial providers.
# (§3) In initial saturation experiments (to calculate Bmax), cell homogenates (150 μl) were incubated with 25-300 pM of the radioligand ([^125I]orexin A, 50 μl), 8 concentrations in triplicates in the presence or absence Orexin A (1 μM, 50 μl) to define non specific binding. Bound radioactivity was measured, and data were analysed with the program XLFIT or Graphpad Prism. Protein concentration was determined according to the Bradford/BioRad Protein Assay Kit.
# (§4) In competition experiments, cell homogenates (150 μl) were incubated in assay buffer (10 mM HEPES, pH 7.5, 0.5% (w/v) bovine serum albumin, 5 mM MgCl2, 1 mM CaCl2, and tween 0.05%) for 1 h at room temperature with about 100 pM of the radioligand ([^125I]orexin A, 2100 Ci/mmole, 50 μl), and with various concentrations of compounds of the invention (50 μl) in triplicates; non-specific binding was determined in the presence of Orexin A (1 μM). Reactions were terminated by vacuum filtration, 3 washes of ice cold wash buffer (Tris-HCl pH 7.4/10 mM, with NaCl 154 mM).
# hOx2R [4] = biological target: T2, hOx2R; experiment: Radioligand binding assay, [125I]orexin A, hOx2R; settings: radioligand [125I]orexin A, competition
# Experimental: as §2, §3, §4
# C75/Bl6 mice [5] = experiment: Beam Braking Motor Activity Behavior (BBM); format: in vivo; settings: 100 mg/kg p.o.; for BBM: induced inactivity vs controls: in the first 3 hours
# Experimental: Beam Braking Motor Activity Behavior (BBM)
# In the morning (9:00 h) of experimental day 1, the animals (C75/Bl6 mice; Janvier, France) are singly placed into home cages (Type 3, only containing sawdust, as well as food and water ad libitum). The cages are put into frames equipped with infrared beams to record the activity/inactivity of the mice (Moti 4.25, TSE Systems, Germany). The first 1.5 days are used for habituation (see Figure). Five minutes before lights-off of the second day, the animals (n=6/groups) are orally treated with vehicle, the compounds or a positive control (e.g. almorexant 100 mg/kg). Then, the animals stay in the setups for the following lights-off period and activity monitored.
# The data are expressed as means±SEM (standard error of the means) of these difference scores for each hour as well as for the first four hours after administration, the time period which is most sensible to the effects of sleep-promoting compounds. Statistical analysis of the data is done with Systat 11 software. Since the data are normally distributed, analysis of variance (ANOVA) with treatment as between subject factor and the Dunnett test for post-hoc pairwise comparison were used. Furthermore, Student t-tests are used for single pair wise comparisons.
# C75/Bl6 mice [6] = experiment: Sleep Electroencephalography (Sleep EEG); format: in vivo; settings: 100 mg/kg p.o.
# Experimental: Sleep Electroencephalography (Sleep EEG):
# The sleep pattern of tethered mice (C75/Bl6 mice; Janvier, France), chronically implanted with cortical EEG electrodes and an EMG electrode (neck muscle), is scored using the rodent scoring module of Somnologica software. Activity is monitored with an infrared sensor placed in the top of the cage and video recordings are collected with a day/night camera and infrared light during the dark phase (12 hours, lights off at 15:00). Mice are repeatedly acclimated to the recording setup and for a minimum of 3 days before each experiment. All treatments occur 5-10 min before lights off. On Day 1 mice are handled and the oral gavage introduced without application, on Day 2 vehicle is applied, on Day 3 compound is applied, and on Day 4 vehicle is applied. 22 hour recordings are scored in 10 s epochs and the total minutes per hour in Active wake (wake with locomotion), Quiet wake, and sleep are determined. Significance (p<0.05) is tested between vehicle and compound with Systat12 using the Restricted Maximum Likelihood test followed by post-hoc analysis using Fisher's Least Significant Differences test when either treatment or the interaction between treatment and hour had p<0.05.
# T1 sequence (O43613 whole entry): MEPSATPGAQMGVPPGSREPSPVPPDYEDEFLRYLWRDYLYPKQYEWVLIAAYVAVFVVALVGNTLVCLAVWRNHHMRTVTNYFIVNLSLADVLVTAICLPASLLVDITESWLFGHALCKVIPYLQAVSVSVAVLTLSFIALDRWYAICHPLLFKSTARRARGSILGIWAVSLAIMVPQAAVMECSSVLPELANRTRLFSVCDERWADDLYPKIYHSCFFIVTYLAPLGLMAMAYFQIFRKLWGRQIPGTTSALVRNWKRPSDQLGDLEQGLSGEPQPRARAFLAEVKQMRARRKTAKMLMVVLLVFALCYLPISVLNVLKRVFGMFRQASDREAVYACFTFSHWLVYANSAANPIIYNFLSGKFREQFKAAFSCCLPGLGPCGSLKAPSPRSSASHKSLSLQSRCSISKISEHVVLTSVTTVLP
# T2 sequence (O43614 whole entry): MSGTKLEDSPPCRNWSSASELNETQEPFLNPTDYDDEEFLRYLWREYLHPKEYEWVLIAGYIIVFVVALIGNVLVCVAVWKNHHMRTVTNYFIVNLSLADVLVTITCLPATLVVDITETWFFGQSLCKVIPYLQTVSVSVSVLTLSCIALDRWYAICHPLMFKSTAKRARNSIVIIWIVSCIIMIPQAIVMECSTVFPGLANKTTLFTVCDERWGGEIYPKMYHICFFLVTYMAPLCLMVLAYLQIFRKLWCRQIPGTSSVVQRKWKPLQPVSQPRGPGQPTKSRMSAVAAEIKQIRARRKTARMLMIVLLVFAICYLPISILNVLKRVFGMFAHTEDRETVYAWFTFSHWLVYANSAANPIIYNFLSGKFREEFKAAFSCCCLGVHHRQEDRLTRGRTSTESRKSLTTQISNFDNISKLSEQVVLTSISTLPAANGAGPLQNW
Ki (hOx1R [1]) [nM],Ki (hOx2R [2]) [nM],Kd (hOx1R [3]) [nM],Kd (hOx2R [4]) [nM],SMILES,BBM: duration of induced inactivity (C75/Bl6 mice [5]) [h],BBM: induced inactivity vs controls (C75/Bl6 mice [5]),Sleep EEG: duration of reduced active wake and increased sleep (C75/Bl6 mice [6]),Sleep EEG: effect on quiet wake (C75/Bl6 mice [6]),Sleep EEG: reduction of active wake and increase of sleep vs controls (C75/Bl6 mice [6])
314,30,374,42,"O=C1N(Cc2c[nH]c3ccccc23)CCCC12CCN(c1cnc3ccccc3n1)CC2 [Example 1, 2-((1H-indol-3-yl)methyl)-9-(quinoxalin-2-yl)-2,9-diazaspiro[5.5]undecan-1-one]",6 to 7,15-22 minutes/hour,up to 7 hours,minimal effects,7-16 minutes/hour
,,,,"CNC(=O)[C@@H](c1ccccc1)N1CCc2cc(OC)c(OC)cc2[C@@H]1CCc1ccc(C(F)(F)F)cc1 [almorexant, reference compound]",5 to 7,18-21 minutes/hour,5 to 6 h,without noticeable effect,9-16 minutes/hour
